Experimental data taken from patent US6492416B1, “4,5-diaryl-3(2H)-furanone derivatives as cyclooxygenase-2 inhibitors” (Pacific Corporation, priority 1999, dated 2002).
Values after ≈ are worked out from the molar mass of the structure shown.

Tests used:
[1] = target: T1, COX-2 (Mus musculus, UniProt Q05769); assay: Evaluation of COX-2 activity: PGE2 formation in aspirin-treated, LPS-stimulated mouse peritoneal macrophages; assay type: cell-based
T1 sequence (Q05769 18-604): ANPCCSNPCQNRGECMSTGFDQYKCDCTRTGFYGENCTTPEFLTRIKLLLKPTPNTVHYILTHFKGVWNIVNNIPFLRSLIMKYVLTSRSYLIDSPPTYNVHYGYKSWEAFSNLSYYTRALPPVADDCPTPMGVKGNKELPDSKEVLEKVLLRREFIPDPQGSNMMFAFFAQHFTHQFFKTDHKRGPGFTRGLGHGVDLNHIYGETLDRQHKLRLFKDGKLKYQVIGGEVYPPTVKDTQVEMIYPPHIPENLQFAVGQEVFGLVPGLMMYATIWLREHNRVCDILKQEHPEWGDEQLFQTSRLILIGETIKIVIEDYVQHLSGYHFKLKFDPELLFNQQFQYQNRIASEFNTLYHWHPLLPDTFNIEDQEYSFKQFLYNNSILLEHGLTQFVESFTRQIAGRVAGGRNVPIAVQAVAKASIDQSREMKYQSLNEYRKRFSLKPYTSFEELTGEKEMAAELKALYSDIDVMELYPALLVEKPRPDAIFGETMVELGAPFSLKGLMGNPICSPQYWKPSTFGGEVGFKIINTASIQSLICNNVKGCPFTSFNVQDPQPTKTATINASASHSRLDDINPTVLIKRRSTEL
Method in brief: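 PGE2 output, quantified by radio- or enzyme-immunoassay, was read after 10 min exposure of cells to compound with 10 μM arachidonic acid. Cells were mouse peritoneal macrophages, COX-1 knocked out with 500 μM aspirin and COX-2 induced by 10 μg/ml LPS over 16 h. IC50 derived from 4–5 concentrations.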

[2] = target: T2, COX-1 (Mus musculus, UniProt P22437); assay: Evaluation of COX-1 activity: PGE2 formation in mouse peritoneal macrophages without aspirin and LPS treatment; assay type: cell-based
T2 sequence (P22437 27-602): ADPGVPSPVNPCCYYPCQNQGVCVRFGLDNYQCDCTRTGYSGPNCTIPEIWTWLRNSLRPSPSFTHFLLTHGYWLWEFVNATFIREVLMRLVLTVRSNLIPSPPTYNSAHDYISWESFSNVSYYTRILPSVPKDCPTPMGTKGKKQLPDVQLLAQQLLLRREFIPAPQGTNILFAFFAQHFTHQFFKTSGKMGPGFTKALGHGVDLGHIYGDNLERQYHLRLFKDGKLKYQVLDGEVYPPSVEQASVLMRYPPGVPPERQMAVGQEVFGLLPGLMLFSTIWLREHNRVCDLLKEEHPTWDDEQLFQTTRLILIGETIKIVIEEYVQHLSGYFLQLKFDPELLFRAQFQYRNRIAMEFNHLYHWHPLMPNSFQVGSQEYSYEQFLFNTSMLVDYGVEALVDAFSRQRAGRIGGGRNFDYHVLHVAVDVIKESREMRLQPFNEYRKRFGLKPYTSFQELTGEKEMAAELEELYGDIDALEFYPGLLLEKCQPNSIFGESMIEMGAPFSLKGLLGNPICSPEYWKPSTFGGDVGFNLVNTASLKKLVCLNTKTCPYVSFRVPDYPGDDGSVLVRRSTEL
Method in brief: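 Peritoneal macrophages from C57BL/6 mice, without aspirin or LPS treatment, were plated at 1×10^6 cells/ml and fixed 2 h at 37 °C. Cells were preincubated 10 min, then given 10 μM arachidonic acid plus compound for 10 min; PGE2 was measured by RIA or EIA. IC50 came from 4–5 concentrations.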

[3] = Pharmacokinetic studies in rats; assay type: in vivo, rat; details: metabolite in plasma after oral administration of Example 393 to a SD rat at 10 mg/kg body weight (FIG. 1)
Experimental: An appropriate amount of a compound suspended 1% aqueous methylcellulose solution was administered to a male SD rat by oral gavage. Blood samples were collected from the retro-orbital sinus at designated times over 24˜48 hours. Plasma was separated from each blood sample by centrifugation and the plasma was stored at 4° C. until analysis. The plasma samples prepared thereby were subjected to analysis by reverse phase HPLC (high performance liquid chromatography) using an appropriate internal standard.

IC50, μg/ml COX-2 [1]: 0.01 µg/mL (≈ 0.0265 µM)
IC50, μg/ml COX-1 [2]: 2 µg/mL (≈ 5.31 µM)
amounts detected in the plasma [3]: appreciable amounts
melting point: 151 to 152 °C
SMILES: CC1(C)OC(c2ccc(S(C)(=O)=O)cc2)=C(c2cccc(Cl)c2)C1=O [Example 62, 4-(3-Chlorophenyl)-2,2-dimethyl-5-{4-(methylsulfonyl)phenyl}-3(2H)-furanone]
